Experimental data as given in patent publication US20080286394A1, “NOVEL HERBAL FORMULATION AS BRAIN TONIC” (priority 2003, published 2008).
Several values for one entry are separate records, joined by “and”; a condition that tells them apart may be missing. Identical values can stand only once. Marks after values point to notes of the source that are not given here.

System: impairment of memory acquisition in step-down test in mice
Assay: Passive avoidance task (step-down test), scopolamine-induced impairment of memory acquisition
Format: in vivo
Conditions: scopolamine 0.4 mg/kg alone (amnesia-inducing agent)

In the case of `CN1[C@@H]2C[C@@H](OC(=O)[C@H](CO)c3ccccc3)C[C@H]1[C@@H]1O[C@@H]12` [Scopalamine, scopolamine], the “Latency (sec)” value is reported as 7.7 ± 0.04^c sec and 7.8 ± 0.03^c sec and 7.8 ± 0.04^c sec and the No of mistakes is reported as 66.8 ± 8.9^c and 65.3 ± 8.6^c and 69.8 ± 8.9^c.
